According to patent publication US20250114374A1, “BCL-2 INHIBITORS” (Newave Pharmaceutical Inc., priority 2021, published 2025):

Tested on: RS4; 11 with G101V mutation
Assay: In vitro anti-proliferation assay (ATPlite luminescence) in BCL-2-dependent ALL cell line RS4;11 with G101V mutation
Assay type: cell-based
Conditions: cellular anti-proliferative IC50, about 72 hours, medium with 10% FBS, ATPlite; read-out: RS411-G101V IC50
In short: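 RS4;11 G101V cells at about 1×10^4 per well were exposed to a range of compound concentrations for about 72 h in medium with 10% FBS. Cellular ATP was measured by ATPlite luminescence after lysis, and IC50 was derived from the dose-response.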

SMILES	IC50 [nM]
CC(C)Oc1ccccc1[C@H]1CN(CC2CCOCC2)CCN1C1CC2(CCN(c3ccc(C(=O)NS(=O)(=O)c4ccc(NCC5CCC(C)(O)CC5)c([N+](=O)[O-])c4)c(N4c5cc6cc[nH]c6nc5O[C@H]5COCC[C@@H]54)c3)CC2)C1 (stereo partly drawn) [Example 159, 2-[(3R,8S)-2,5-dioxa-9,15,17-triazatetracyclo[8.7.0.0^{3,8}.0^{12,16}]heptadeca-1(10),11,13,16-tetraen-9-yl]-4-{2-[(2S)-2-(2-isopropoxyphenyl)-4-(oxan-4-ylmethyl)piperazin-1-yl]-7-azaspiro[3.5]nonan-7-yl}-N-[3-nitro-4-({[(1r,4r)-4-hydroxy-4-methylcyclohexyl]methyl}amino)benzenesulfonyl]benzamide]	7.5
CC(C)Oc1ccccc1[C@H]1CN(C2CCC(N3CCOC[C@H]3C)CC2)CCN1C1CC2(CCN(c3ccc(C(=O)NS(=O)(=O)c4ccc(NCC5CCC(C)(O)CC5)c([N+](=O)[O-])c4)c(N4c5cc6cc[nH]c6nc5O[C@H]5COCC[C@@H]54)c3)CC2)C1 (stereo partly drawn) [Example 160, N-((4-((((1r,4r)-4-hydroxy-4-methylcyclohexyl)methyl)amino)-3-nitrophenyl)sulfonyl)-4-(2-((S)-2-(2-isopropoxyphenyl)-4-((1S,4R)-4-((R)-3-methylmorpholino)cyclohexyl)piperazin-1-yl)-7-azaspiro[3.5]nonan-7-yl)-2-((5aS,9aR)-6,7,9,9a-tetrahydro-1H-pyrano[3,4-b]pyrrolo[3′,2′:5,6]pyrido[3,2-e][1,4]oxazin-5(5aH)-yl)benzamide]	22.8
CC(C)Oc1ccccc1[C@H]1CN(C2CCC(N3CCOC[C@H]3C)CC2)CCN1C1CC2(CCN(c3ccc(C(=O)NS(=O)(=O)c4ccc(NCC5CCC(C)(O)CC5)c([N+](=O)[O-])c4)c(N4c5cc6cc[nH]c6nc5O[C@H]5COCC[C@@H]54)c3)CC2)C1 (stereo partly drawn) [Example 161, N-((4-((((1r,4r)-4-hydroxy-4-methylcyclohexyl)methyl)amino)-3-nitrophenyl)sulfonyl)-4-(2-((S)-2-(2-isopropoxyphenyl)-4-((1R,4S)-4-((R)-3-methylmorpholino)cyclohexyl)piperazin-1-yl)-7-azaspiro[3.5]nonan-7-yl)-2-((5aS,9aR)-6,7,9,9a-tetrahydro-1H-pyrano[3,4-b]pyrrolo[3′,2′:5,6]pyrido[3,2-e][1,4]oxazin-5(5aH)-yl)benzamide]	18.1
CC(C)Oc1ccccc1[C@H]1CN(C2CCN(C3CCOCC3)CC2)CCN1C1CC2(CCN(c3ccc(C(=O)NS(=O)(=O)c4ccc(NC[C@H]5CC[C@](C)(O)CC5)c([N+](=O)[O-])c4)c(N4c5cc6cc[nH]c6nc5O[C@H]5COCC[C@@H]54)c3)CC2)C1 [Example 162, N-((4-((((1r,4r)-4-hydroxy-4-methylcyclohexyl)methyl)amino)-3-nitrophenyl)sulfonyl)-4-(2-((S)-2-(2-isopropoxyphenyl)-4-(1-(tetrahydro-2H-pyran-4-yl)piperidin-4-yl)piperazin-1-yl)-7-azaspiro[3.5]nonan-7-yl)-2-((5aS,9aR)-6,7,9,9a-tetrahydro-1H-pyrano[3,4-b]pyrrolo[3′,2′:5,6]pyrido[3,2-e][1,4]oxazin-5(5aH)-yl)benzamide]	49.9
COc1ncc(CN2CCN(C3CC4(CCN(c5ccc(C(=O)NS(=O)(=O)c6ccc(NCC7CCC(C)(O)CC7)c([N+](=O)[O-])c6)c(N6c7cc8cc[nH]c8nc7O[C@H]7COCC[C@@H]76)c5)CC4)C3)[C@@H](c3ccccc3OC(C)C)C2)cc1N1CCOCC1 (stereo partly drawn) [Example 163, N-((4-((((1r,4r)-4-hydroxy-4-methylcyclohexyl)methyl)amino)-3-nitrophenyl)sulfonyl)-4-(2-((S)-2-(2-isopropoxyphenyl)-4-((6-methoxy-5-morpholinopyridin-3-yl)methyl)piperazin-1-yl)-7-azaspiro[3.5]nonan-7-yl)-2-((5aS,9aR)-6,7,9,9a-tetrahydro-1H-pyrano[3,4-b]pyrrolo[3′,2′:5,6]pyrido[3,2-e][1,4]oxazin-5(5aH)-yl)benzamide]	27.9
Cc1ccccc1[C@@H]1CN(Cc2ccc(F)c(F)c2)CCN1C1CC2(CCN(c3ccc(C(=O)NS(=O)(=O)c4ccc(NCC5CCOCC5)c([N+](=O)[O-])c4)c(N4c5cc6cc[nH]c6nc5O[C@H]5COCC[C@@H]54)c3)CC2)C1 [Example 164, 4-{2-[(2R)-4-[(3,4-difluorophenyl)methyl]-2-(2-methylphenyl)piperazin-1-yl]-7-azaspiro[3.5]nonan-7-yl}-2-[(3R,8S)-2,5-dioxa-9,15,17-triazatetracyclo[8.7.0.0^{3,8}.0^{12,16}]heptadeca-1(10),11,13,16-tetraen-9-yl]-N-{3-nitro-4-[(oxan-4-ylmethyl)amino]benzenesulfonyl}benzamide]	48.5
CC(C)c1ccccc1[C@@H]1CN(Cc2ccc(F)c(F)c2)CCN1C1CC2(CCN(c3ccc(C(=O)NS(=O)(=O)c4ccc(NCC5CCOCC5)c([N+](=O)[O-])c4)c(N4c5cc6cc[nH]c6nc5O[C@H]5COCC[C@@H]54)c3)CC2)C1 [Example 165, 4-{2-[(2R)-4-[(3,4-difluorophenyl)methyl]-2-(2-isopropylphenyl)piperazin-1-yl]-7-azaspiro[3.5]nonan-7-yl}-2-[(3R,8S)-2,5-dioxa-9,15,17-triazatetracyclo[8.7.0.0^{3,8}.0^{12,16}]heptadeca-1(10),11,13,16-tetraen-9-yl]-N-{3-nitro-4-[(oxan-4-ylmethyl)amino]benzenesulfonyl}benzamide]	10.9
CC(C)c1ccccc1[C@H]1CN(Cc2ccc(F)c(F)c2)CCN1C1CC2(CCN(c3ccc(C(=O)NS(=O)(=O)c4ccc(NCC5CCOCC5)c([N+](=O)[O-])c4)c(N4c5cc6cc[nH]c6nc5O[C@H]5COCC[C@@H]54)c3)CC2)C1 [Example 166, 4-{2-[(2S)-4-[(3,4-difluorophenyl)methyl]-2-(2-isopropylphenyl)piperazin-1-yl]-7-azaspiro[3.5]nonan-7-yl}-2-[(3R,8S)-2,5-dioxa-9,15,17-triazatetracyclo[8.7.0.0^{3,8}.0^{12,16}]heptadeca-1(10),11,13,16-tetraen-9-yl]-N-{3-nitro-4-[(oxan-4-ylmethyl)amino]benzenesulfonyl}benzamide]	585
Cc1ccccc1[C@@H]1CN(Cc2ccc(F)c(F)c2)CCN1C1CC2(CCN(c3ccc(C(=O)NS(=O)(=O)c4cc5c(c([N+](=O)[O-])c4)N[C@@H](C4CCOCC4)CO5)c(N4c5cc6cc[nH]c6nc5O[C@H]5COCC[C@@H]54)c3)CC2)C1 [Example 167, 4-{2-[(2R)-4-[(3,4-difluorophenyl)methyl]-2-(2-methylphenyl)piperazin-1-yl]-7-azaspiro[3.5]nonan-7-yl}-2-[(3R,8S)-2,5-dioxa-9,15,17-triazatetracyclo[8.7.0.0^{3,8}.0^{12,16}]heptadeca-1(10),11,13,16-tetraen-9-yl]-N-[(3S)-5-nitro-3-(oxan-4-yl)-3,4-dihydro-2H-1,4-benzoxazin-7-ylsulfonyl]benzamide]	75.8
